From publication PMC6630837 (Pharmaceuticals, 2019)
pIC50: −log10 of the molar value.

How the values were obtained:
[1] = Cell viability (MTT) assay in HepG2 cells; type: cell-based, human; conditions: human; HepG2 cells, 0.1 μM to 100 μM; read-out: IC50 (cytotoxicity)
Procedure: (§1) Cell viability assay in human epithelial colorectal adenocarcinoma (Caco-2) and human liver hepatocellular (HepG2) cells. Caco-2 and HepG2 Cells were cultured in DMEM-Dulbecco’s modified Eagle’s medium (Sigma-Aldrich) supplemented with 10% (v/v) inactivated fetal bovine serum (PAA Laboratories GmbH), 2 mM L-glutamine (Sigma-Aldrich), 100 U/mL penicillin and 100 μg/mL streptomycin (Sigma-Aldrich), in a humidified incubator at 37 °C with a 5% CO2 atmosphere. Cells (3 × 10^4 cells/well) were seeded into 96-well plates and incubated at 37 °C in 5% CO2 atmosphere. After 24 h, compounds were added at different concentrations (0.1–100 μM) and incubated in the same conditions. DMSO controls were performed to evaluate a possible solvent cytotoxicity, while pure DMSO was used as a cytotoxic drug. After the established incubation time with compounds, MTT (5 mg/mL) in PBS (Sigma-Aldrich) was added (10 μL) to each well. After 3 h incubation at 37 °C, in 5% CO2, the supernatant was removed. The formazan crystals were solubilized using ethanol/DMSO (1:1) (100 μL), and the absorbance values were determined at 570 nm on the microplate reader Victor3 from PerkinElmer Life Sciences.

[2] = system: human liver hepatocellular (HepG2) cells; test: Cell viability (MTT) assay in HepG2 cells; type: cell-based; conditions: at 100 μM
Procedure: as §1

[3] = system: SH-SY5Y human neuroblastoma cells; test: Neuroprotection against H2O2-induced toxicity, MTT cell viability assay; type: cell-based; conditions: 50 μM compound, 100 μM H2O2, 24 h, 37 °C
Source text: Neuroprotective activity assays against H2O2-induced toxicity. On the basis of previously described protocols, the flavones and analogues herein synthesized were screened for their neuroprotective effects against H2O2-induced oxidative stress and neuronal damage in SH-SY5Y human neuroblastoma cells by means of a thiazolyl blue tetrazolium bromide (MTT) reduction-based cell viability assay.
Neuroprotective assays in human neuroblastoma (SH-SY5Y) cells. […] Differences were considered significant when P < 0.05.

[4] = system: SH-SY5Y neuroblastoma cells; test: Cytotoxic activity of compounds alone, MTT cell viability assay; conditions: 50 μM compound alone, 24 h, 37 °C, 0.5% DMSO, SH-SY5Y
Procedure: Neuroprotective assays in human neuroblastoma (SH-SY5Y) cells. SH-SY5Y cells were grown in Dulbecco’s Modified Eagle Medium (DMEM, Gibco, Life Technologies) supplemented with 10% fetal bovine serum (FBS, Biochrom GmbH) and 1% Penicillin-Streptomycin (Gibco, Life Technologies) in a humidified incubator at 37 °C, 5% CO2. For the neuroprotective activity assay, undifferentiated SGSY-5Y cells were plated onto 96-well flat-bottomed microtiter plates at a density of 1 × 10^4 cells/well in DMEM supplemented with 2% FBS and preincubated for 24 h at 37 °C, 5% CO2. Compounds (stored as 10 mM solutions in DMSO at −20 °C) were then added to achieve a final concentration of 50 μM and, after 30 min, cells were incubated in the presence or absence of 20 μM Aβ protein fragment 1-42 (Sigma-Aldrich, dissolved in DMSO and stored in 2 mM aliquots at −20 °C) or 100 μM of H2O2 (Sigma-Aldrich, dissolved to 10 mM in 0.9% NaCl aqueous solution immediately prior to the assay) overnight at 37 °C, 5% CO2. […] The following morning, 20 μL of a 5 mg/mL solution of 3-(4,5-dimethylthiazol-2-yl)-2,5-diphenyltetrazolium bromide (MTT, Sigma-Aldrich) in PBS (Gibco, Life Technologies) was added to each well and the plates were further incubated for 4 h at 37 °C, followed by the addition of DMSO (200 μL) to each well in order to dissolve the resulting formazan crystals. After 2 h incubating at 37 °C, the optical density (OD) at 540 nm (with a 620 nm reference filter) was measured in an Amersham Biosciences Biotrak II Plate Reader. The percentage of MTT reduction was determined according to Equation (1). […] Differences between experimental conditions were compared for statistical significance by one-way ANOVA followed by a Tukey’s post-test, an analysis carried out using GraphPad Prism Software (LA Jolla, CA, USA). Differences were considered significant when P < 0.05. In order to exclude direct MTT reduction, compounds were also tested in (a) the absence of cells and (b) in the absence of both cells and culture medium, using the same experimental conditions described above. (2) MTT Reduction (% of Control)=[ODsample−ODmedium/ODcell control−ODmedium] × 100 […]
Tabl e S2. Cytotoxic activity of each compound assessed in SH-SY5Y neuroblastoma cells via an MTT cell viability assay.a Comp ound Nr. MTT reduction (% control) p-va l u e vs . untreated cell control (unpai red t-t es t) […]
a Cells were incubated for 24 h at 37 °C, in the presence (50 μM) or absence of each compound.

O=c1cc(-c2ccc(N3CCOCC3)cc2)oc2c([C@@H]3O[C@H](CO)[C@@H](O)[C@H](O)[C@H]3O)c(O)cc(O)c12 [Compound 19, 8-(β-D-Glucopyranosyl)-5,7-dihydroxy-4′-(morpholin-4-yl)flavone]
pIC50 [1]: ≤ 4.00 | Cytotoxicity towards HepG2 cells [2]: did not show any cytotoxicity | Neuroprotective effect against H2O2-induced toxicity (MTT cell viability) [3]: able to produce statistically significant differences when compared to H2O2 controls | Neuroprotective effect against H2O2-induced toxicity (MTT cell viability) ([3]; listed as 37): fully rescued | MTT reduction (% control) [4]: 138.5 ± 3.6%
